# Measured values from patent US20160256560A1, “Environmentally Sensitive Compositions” (priority 2010, published 2016).
# “And” between values parts separate entries of the source, which are not always exact repeats. Identical values can stand only once. Like-named read-outs stand apart in the source and are kept apart here. *1 amine or outer side, *2 acyl side, *3 side chain or, on linkers, in order; H or OH if unused. Where a SMILES comes first, the peptide text is derived from it. Bridges are numbered along the chain shown (N, C = ends). Where no end group is shown, it is not given here. [ ]: non-standard residue; d: D form. ξ: configuration not given here. X3 = CN(C)c1ccc2c(c1)Oc1cc(N(C)C)ccc1C2=C1C=CC(=NC(=S)NC[C@](C)(O)C[C@H](N[*:1])C(=O)[*:2])C=C1C(=O)O; X2 = CCCCCCCC/C=C\CCCCCCCC(=O)OC[C@](C)(O)C[C@H](N[*:1])C(=O)[*:2]; Trp(2-yl) = O=C([C@H](Cc1c([*:3])[nH]c2ccccc12)N[*:1])[*:2]; ξTrp(2-yl) = O=C(C(Cc1c([*:3])[nH]c2ccccc12)N[*:1])[*:2]; X1 = CC(O)(CO)CC(N[*:1])C(=O)[*:2]; cisHyp = O=C(O)[C@@H]1C[C@H](O)CN1; ξAsp(3ξ-OH) = NC(C(=O)O)C(O)C(=O)O; Hyp = O=C(O)[CH]1C[CH](O)CN1
# What was measured:
# [1] = tested on: HeLa cells; assay type: cell-based, human; settings: for antiproliferative effect at either pH: pH 6
# [2] = pH 5.5
# [3] = biological target: actin filaments; settings: read-out: Kd, binding to actin filaments; cited from earlier work
# [4] = not given; remark: listed apart in the source
# [5] = physchem
# [6] = Stopped-flow fluorescence and CD kinetics of insertion/folding and exit/unfolding; assay type: physicochemical
# [7] = tested on: tumors; set-up: species or system nude mice; settings: mouse, in vivo
# [8] = tested on: HeLa cells
# [9] = tested on: M4A4 cells
# [10] = tested on: HeLa tumors; settings: mouse, in vivo
# [11] = tested on: HeLa-GFP cells; assay: Cellular uptake of nanogold (silver enhancement, image analysis); assay type: cell-based, human; settings: 1 h
molecule,measurement,setting,value
CC[C@H](C)[C@H](NC(=O)[C@@H]1CCCN1C(=O)[C@H](CC(N)=O)NC(=O)[C@H](CCC(N)=O)NC(=O)[C@H](CCC(=O)O)NC(=O)[C@H](C)NC(=O)[C@H](C)N)C(=O)N[C@@H](Cc1ccc(O)cc1)C(=O)N[C@@H](Cc1c[nH]c2ccccc12)C(=O)N[C@@H](C)C(=O)N[C@@H](CCCNC(=N)N)C(=O)N[C@@H](Cc1ccc(O)cc1)C(=O)N[C@@H](C)C(=O)N[C@@H](CCC(=O)O)C(=O)N[C@@H](Cc1c[nH]c2ccccc12)C(=O)N[C@@H](CC(C)C)C(=O)N[C@@H](Cc1ccccc1)C(=O)N[C@H](C(=O)N[C@H](C(=O)N1CCC[C@H]1C(=O)N[C@@H](CC(C)C)C(=O)N[C@@H](CC(C)C)C(=O)N[C@@H](CC(C)C)C(=O)N[C@@H](CC(C)C)C(=O)N[C@@H](CC(=O)O)C(=O)N[C@@H](CC(C)C)C(=O)N[C@@H](C)C(=O)N[C@@H](CC(C)C)C(=O)N[C@@H](CC(C)C)C(=O)N[C@H](C(=O)N[C@@H](CC(=O)O)C(=O)N[C@@H](C)C(=O)N[C@@H](CC(=O)O)C(=O)N[C@@H](CCC(=O)O)C(=O)NCC(=O)N[C@H](C(=O)N[C@@H](CS)C(=O)NCC(=O)O)[C@@H](C)O)C(C)C)[C@@H](C)O)[C@@H](C)O [D14E],pH 8 Solubility,,Y
CC[C@H](C)[C@H](NC(=O)[C@@H]1CCCN1C(=O)[C@H](CC(N)=O)NC(=O)[C@H](CCC(N)=O)NC(=O)[C@H](CCC(=O)O)NC(=O)[C@H](C)NC(=O)[C@H](C)N)C(=O)N[C@@H](Cc1ccc(O)cc1)C(=O)N[C@@H](Cc1c[nH]c2ccccc12)C(=O)N[C@@H](C)C(=O)N[C@@H](CCCNC(=N)N)C(=O)N[C@@H](Cc1ccc(O)cc1)C(=O)N[C@@H](C)C(=O)N[C@@H](CC(=O)O)C(=O)N[C@@H](Cc1c[nH]c2ccccc12)C(=O)N[C@@H](CC(C)C)C(=O)N[C@@H](Cc1ccccc1)C(=O)N[C@H](C(=O)N[C@H](C(=O)N1CCC[C@H]1C(=O)N[C@@H](CC(C)C)C(=O)N[C@@H](CC(C)C)C(=O)N[C@@H](CC(C)C)C(=O)N[C@@H](CC(C)C)C(=O)N[C@@H](C)C(=O)N[C@@H](CC(C)C)C(=O)N[C@@H](C)C(=O)N[C@@H](CC(C)C)C(=O)N[C@@H](CC(C)C)C(=O)N[C@H](C(=O)N[C@@H](CC(=O)O)C(=O)N[C@@H](C)C(=O)N[C@@H](CC(=O)O)C(=O)N[C@@H](CCC(=O)O)C(=O)NCC(=O)N[C@H](C(=O)N[C@@H](CS)C(=O)NCC(=O)O)[C@@H](C)O)C(C)C)[C@@H](C)O)[C@@H](C)O [D25A],pH 8 Solubility,,N
"CC1NC(=O)C2CC(O)CN2C(=O)C2CSc3[nH]c4ccccc4c3CC(NC1=O)C(=O)NC(CC(C)(O)CO)C(=O)NC(C(C)C)C(=O)NC(C(O)C(=O)O)C(=O)N2 (centres unmarked) [phallacidin, reference compound] (cyclo([ξAsp(3ξ-OH)]C[Hyp]A[ξTrp(2-yl)][X1]V); thioether 2-5; configuration not given here)",antiproliferative effect at either pH,[1],does not demonstrate an antiproliferative effect at either pH
same,Log P (octanol-water partition coefficient),[2],−1.6
C[C@@H]1NC(=O)[C@H](C[C@@](C)(O)CNC(=S)N=C2C=CC(=C3c4ccc(N(C)C)cc4Oc4cc(N(C)C)ccc43)C(C(=O)O)=C2)NC(=O)[C@@H]2Cc3c([nH]c4ccccc34)SC[C@H](NC(=O)[C@@H]([C@H](C)O)NC1=O)C(=O)N1C[C@@H](O)C[C@H]1C(=O)N[C@@H](C)C(=O)N2 [phalloidin-TRITC] (cyclo(A[dT]C[cisHyp]A[Trp(2-yl)][X3]); thioether 3-6),Kd,[3],40 nM
CCCCCCCC/C=C\CCCCCCCC(=O)OC[C@](C)(O)C[C@@H]1NC(=O)[C@@H]2Cc3c([nH]c4ccccc34)SC[C@H](NC(=O)[C@@H]([C@H](C)O)NC(=O)[C@H](C)NC1=O)C(=O)N1C[C@@H](O)C[C@H]1C(=O)N[C@@H](C)C(=O)N2 [phalloidin-oleate] (cyclo(A[dT]C[cisHyp]A[Trp(2-yl)][X2]); thioether 3-6),inhibition of Hela cell proliferation rate,[1]; 1 µM,60%
same,inhibition of Hela cell proliferation rate,[1]; 2 µM,70%
same,inhibition of Hela cell proliferation rate,[1]; 4 µM,95%
same,Log P,[2],+1.7
AAEQNPIYWARYADWLFTTALLLLDLALLVDADEGT [P20A],Findings: solubility / aggregation,[4]; pH 8,Aggregates
AAEQNPIYWARYADWLFTTPLLLLDLALLVDADEGTCG [WT-Cys1],pKa,[5],6.14
AAEQNPIYWARYAEWLFTTPLLLLELALLVDADEGTCG [D14/25E],pH 8 Solubility,,N
ACEQNPIYWARYAKWLFTTPLLLLKLALLVDADEGTG [K-pHLIP],pH 8 Solubility,,Y/N
ACEQNPIYWARYANWLFTTPLLLLNLALLVDADEGTG [N-pHLIP],pH 8 Solubility,,Y
AEDQNDPI YWARYADWLFTTPLLLLELALLV EC--G-T-COOH [pHLIP-2E],"A, frequency factor, first transition",[6]; pH 8,1.2 × 10^5
same,"Ea, first transition",[6]; pH 8,6.0 kcal/mol
same,"k1, rate constant",[6]; pH 8,0.20/5.00 s^−1 and 0.28/3.57 s^−1 and 0.34/2.94 s^−1 and 0.39/2.56 s^−1
same,"t1, characteristic time",[6]; pH 8,0.20/5.00 s and 0.28/3.57 s and 0.34/2.94 s and 0.39/2.56 s
same,"λmax, maximum position of fluorescence spectrum",[4],339.2 nm
same,"λmax, maximum position of fluorescence spectrum",[4]; pH 8,351.2 nm and 341.3 nm
AEDQNPYWARYADWLFTTPLLLLDLALLVDCG [Fast1-Cys],pKa,[5],6.1
AEQNPI YFARYADELFTTPLLLLDLALLW DADET-COOH [pHLIP-W3],"characteristic time, first component, exit",[6]; pH 3.6,0.06 s (14.9 s^−1)
same,"characteristic time, second component, exit",[6]; pH 3.6,0.35 s (2.88 s^−1)
same,"rate constant, first component, exit",[6]; pH 3.6,0.06 s (14.9 s^−1)
same,"rate constant, second component, exit",[6]; pH 3.6,0.35 s (2.88 s^−1)
AEQNPIYWARYADWLFTTPL [Short-Cys],pKa,[5],4.4
Ac-AAEQNPIYWARYADWLFTTPLLLLDLALLVDADEGTKCG [pHLIP-KC],pH 8 Solubility,,Y
same,pKa,[5],6.16
DDDEDNPIYWARYADWLFTTPLLLLHGALLVDADECT [2H3 or D3a],pH 8 Solubility,,Y
DDDEDNPIYWARYAHWLFTTPLLLLDGALLVDADECT [D3b],pH 8 Solubility,,Y
DDDEDNPIYWARYAHWLFTTPLLLLHGALLVDADECT [2H2 or D2],pH 8 Solubility,,Y
DDDEDNPIYWARYAHWLFTTPLLLLHGALLVNADECT [D1],pH 8 Solubility,,Y
DDDEDNPIYWARYAHWLFTTPLLLLHGALLVNANECT [D0 or H2N2],pH 8 Solubility,,Y
DDDEDNPIYWARYAHWLFTTPLLLLHGALLVNANECT [D0],pH 8 Solubility,,Y
GGEQNPIYWAQDYAWLFTTPLLLLDLALLVDADEGTCG [R11Q; D14UpUp],pH 8 Solubility,,Y
GGEQNPIYWAQYDAWLFTTPLLLLDLALLVDADEGTCG [R11Q; D14Up],pH 8 Solubility,,Y
GGEQNPIYWARYADWLFTTPLLLDLLALLVDADEGTCG [D25Up],pH 8 Solubility,,N
GGEQNPIYWARYADWLFTTPLLLLDLALLVDADEGT [WT-1],pKa,[5],6
GGEQNPIYWARYADWLFTTPLLLLDLALLVDADEGTCG [WT-Cys3],pH 8 Solubility,,Y
GGEQNPIYWARYADWLFTTPLLLLDLALLVNANQGT [NNQ],pH 8 Solubility,,Y
GGEQNPIYWARYADWLFTTPLLLLLDALLVDADEGTCG [D25Down],pH 8 Solubility,,N
GGEQNPIYWARYDAWLFTTPLLLLDLALLVDADEGTCG [D14Up],pH 8 Solubility,,Y
Gadolinium-tetraazacyclododecanetetraacetic acid [Gd-DOTA control],% T1 Change (3 hrs),[7],5.27% and −3.05%
same,% T1 Change (24 hrs),[7],10.7% and 5.02%
same,T1 3 hrs,[7],920.4 ms and 879.2 ms
same,T1 24 hrs,[7],967.6 ms and 952.4 ms
"Phallacidin-(CH2)n—SH, n=4 [phallC4SH]",Log P (octanol-water partition coefficient),[2],−0.74
"Phallacidin-(CH2)n—SH, n=6 [phallC6SH]",antiproliferative effect at either pH,[1],does not demonstrate an antiproliferative effect at either pH
"Phallacidin-(CH2)n—SH, n=10 [phallC10SH]",Log P (octanol-water partition coefficient),[2],+1.28
aminophalloidin [reference compound],inhibitory effect on HeLa proliferation,[8],no inhibitory effect
same,inhibitory effect on M4A4 proliferation,[9],no inhibitory effect
gold-pHLIP: 1.4 nm monomaleimido Nanogold conjugated to N-terminal Cys of pHLIP (ACEQNPIYWARYADWLFTTPLLLLDLALLVDADET) (AC(1.4 nm monomaleimido Nanogold)EQNPIYWARYADWLFTTPLLLLDLALLVDADET),tumor/muscle ratio,[10],5.6
same,gold in tumor versus gold nanoparticles alone (times),[10]; iv,6
same,cellular uptake at pH6.5 versus pH7.4 (times higher),[11]; 2 μM,1.6
same,uptake of gold versus unmodified gold nanoparticles (times),"[11]; pH6.5, 2 μM",6.4
same,uptake of gold versus unmodified gold nanoparticles (times),"[11]; pH7.4, 2 μM",3
pHLIP-S—S—(CH2)6-phallacidin [pHLIP-C6phall],cell death,[1],about 60%
same,antiproliferative effect at neutral pH,[1]; pH 7.4,no effect is observed
phallacidin-(CH2)10NH2 [phallC10],Log P (octanol-water partition coefficient),[2],+1.28
